Data on 45 compounds can be found in PMC8041284, “Tunable Methacrylamides for Covalent Ligand Directed Release Chemistry” (Journal of the American Chemical Society, 2021).

Chain of BTK (Q06187 402-655 limits assumed): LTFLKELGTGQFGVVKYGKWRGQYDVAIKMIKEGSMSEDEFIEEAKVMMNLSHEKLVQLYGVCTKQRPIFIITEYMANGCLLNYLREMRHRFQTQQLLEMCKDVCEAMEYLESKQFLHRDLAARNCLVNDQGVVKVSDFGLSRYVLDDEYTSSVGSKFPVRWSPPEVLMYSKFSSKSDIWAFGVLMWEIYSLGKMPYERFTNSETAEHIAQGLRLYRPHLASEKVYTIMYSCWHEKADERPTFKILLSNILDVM

One experiment has as its target BTK (Homo sapiens, UniProt Q06187). The note with it: 0.75 uM BTK, […] probe 3l, 15 min preincubation, 10 µM, inhibitor, BTK inhibition (%).
As to `CC(=O)Oc1ccccc1C(=O)O` [PCM-0064532], the “BTK inhibition (%)” value is listed as 7.6%.
As to `N[C@@H](C=O)[C@@H](O)[C@H](O)[C@H](O)CO` [PCM-0215073], the “BTK inhibition (%)” value is recorded as -2.8%.
Same read-out and setting: then `C/C(=C\C(=O)OCCCCCCCCC(=O)O)C[C@@H]1OC[C@H](C[C@@H]2O[C@H]2[C@@H](C)[C@H](C)O)[C@@H](O)[C@H]1O` [PCM-0215997], with 13.9%; and `Nc1nc2[nH]cc(CCc3ccc(C(=O)N[C@@H](CCC(=O)O)C(=O)O)cc3)c2c(=O)[nH]1` [PCM-0090283], with 2.6%.
Still for that read-out and setting: then `COc1ccc2c(c1)c(CC(=O)O)c(C)n2C(=O)c1ccc(Cl)cc1` [PCM-0065532], with 5.5%; and `O=C(O)O` [PCM-0216262], with -6.2%.
Consider `C/C=C(/C)C(=O)O[C@H]1[C@@H](OC(C)=O)c2c(ccc3ccc(=O)oc23)OC1(C)C` [PCM-0216298], for which the “BTK inhibition (%)” value is listed as 10%.
Turning to `C[C@H](CCC(=O)NCCS(=O)(=O)O)[C@H]1CC[C@H]2[C@@H]3[C@@H](O)C[C@@H]4C[C@H](O)CC[C@]4(C)[C@H]3CC[C@]12C` [PCM-0214942], the “BTK inhibition (%)” value was determined as 4.7%.
As to `O=C(O)O` [PCM-0216036], the “BTK inhibition (%)” value amounted to 4.3%.
The same measure, in the same setting: with `N[C@@H](C=O)[C@@H](O)[C@H](O)[C@H](O)CO` [PCM-0214928] the figure was -6.2%; with `C[C@@H]1O[C@@H]1P(=O)(O)O` [PCM-0216062], -39.1%.
Regarding `CC[C@H]1OC(=O)[C@H](C)[C@@H](O[C@H]2C[C@@](C)(OC)[C@@H](O)[C@H](C)O2)[C@H](C)[C@@H](O[C@@H]2O[C@H](C)C[C@H](N(C)C)[C@H]2O)[C@](C)(O)C[C@@H](C)CN(C)[C@H](C)[C@@H](O)[C@]1(C)O` [PCM-0216649], the “BTK inhibition (%)” value came to 11.7%.
As for `COc1ccc(C[C@@H](C)NC[C@H](O)c2ccc(O)c(NC=O)c2)cc1` [PCM-0216637], the “BTK inhibition (%)” value was determined as 6.9%.
The same measure, in the same setting: with `C=C[C@]1(C)C[C@@H](OC(=O)CSCCN(CC)CC)[C@]2(C)[C@H](C)CC[C@]3(CCC(=O)[C@H]32)[C@@H](C)[C@@H]1O` [PCM-0216045] the figure was 0%; with `CC[C@H]1OC(=O)[C@H](C)[C@@H](O[C@H]2C[C@@](C)(OC)[C@@H](O)[C@H](C)O2)[C@H](C)[C@@H](O[C@@H]2O[C@H](C)C[C@H](N(C)C)[C@H]2O)[C@](C)(O)C[C@@H](C)C(=O)[C@H](C)[C@@H](O)[C@]1(C)O` [PCM-0214693], 5.4%.

The same experiment, now with this note: 0.75 uM BTK, […] probe 3l, 15 min preincubation; 10 µM; inhibitor.
`O=C(O[C@H]1CN2CCC1CC2)N1CCc2ccccc2[C@@H]1c1ccccc1` [PCM-0095538]: the “BTK inhibition (%)” value is -27.2%.
For the compound `CC(=O)O[C@H]1C[C@@H]2CC[C@@H]3[C@H](CC[C@@]4(C)[C@H]3C[C@H]([N+]3(C)CCCCC3)[C@@H]4OC(C)=O)[C@@]2(C)C[C@@H]1[N+]1(C)CCCCC1` [PCM-0214687], the “BTK inhibition (%)” value was -21%.
As to `O=C(Nc1ccc(Oc2ccc(Cl)cc2)c(Cl)c1)c1cc(I)cc(I)c1O` [PCM-0216018], the “BTK inhibition (%)” value amounted to 37.1%.
With `O=c1ccc2cc(O[C@@H]3O[C@H](CO)[C@@H](O)[C@H](O)[C@H]3O)c(O)cc2o1` [PCM-0091361], the “BTK inhibition (%)” value came out at 0%.
For `CCOC(=O)C1=C[C@@H](OC(CC)CC)[C@H](NC(C)=O)[C@@H](N)C1` [PCM-0095436], the “BTK inhibition (%)” value was -10.2%.
Same read-out and setting: then `CC(C)OC(=O)[C@H](C)N[P@](=O)(CO[C@H](C)Cn1cnc2c(N)ncnc21)Oc1ccccc1` [PCM-0215482], with -3.1%; and `COc1ccc(C=O)cc1` [PCM-0216000], with 17%.
Consider `c1cc2c(cc1[C@H]1OC[C@H]3[C@@H]1CO[C@H]3c1ccc3c(c1)OCO3)OCO2` [PCM-0216178], for which the “BTK inhibition (%)” value is 29.3%.
Consider `C[N+]1(C)[C@@H]2CC(OC(=O)C(O)(c3cccs3)c3cccs3)C[C@H]1[C@@H]1O[C@@H]12` (stereo partly drawn) [PCM-0095323], for which the “BTK inhibition (%)” value is -5.4%.
Same read-out and setting: then `CCN(CC)CCOC(=O)C(O)(c1ccccc1)c1ccccc1` [PCM-0214873], with 8.6%.
On the same count and under the same terms, then `CC(C)[C@]12O[C@H]1[C@@H]1O[C@]13[C@]1(O[C@H]1C[C@H]1C4=C(CC[C@@]13C)C(=O)OC4)[C@@H]2O` [PCM-0214731], with 6.2%; and `CC1=C[C@]23C(=O)[C@@H](C=C(CO)[C@@H](O)[C@]2(O)[C@H]1O)[C@H]1[C@@H](C[C@H]3C)C1(C)C` [PCM-0216393], with -3.1%.
The same measure, in the same setting: with `CN1C2CC(OC(=O)C(CO)c3ccccc3)CC1C(O)C2` (stereo not drawn) [PCM-0216645] the figure was 6.9%; with `CN1CCN(C(=O)C2C3CCC(O3)C2C(=O)O)CC1` (stereo not drawn) [PCM-0215448], -11.1%; with `c1cc2c(cc1[C@H]1OC[C@H]3[C@@H]1CO[C@@H]3c1ccc3c(c1)OCO3)OCO2` [PCM-0094427], -24.1%.
`O=c1ccc2cc3ccoc3c(O)c2o1` [PCM-0216446]: the “BTK inhibition (%)” value is reported as -6.2%.
On the same count and under the same terms, then `CC[C@@]1(O)C(=O)OCc2c1cc1n(c2=O)Cc2cc3cc(O)ccc3nc2-1` [PCM-0094873], with -14%.
On to `CCN(C)C(=O)Oc1cccc([C@H](C)N(C)C)c1` [PCM-0086345], for which the “BTK inhibition (%)” value turned out to be 1.6%.

The same experiment, now with this note: 10 µM; inhibitor.
For the compound `COc1ccc(C=O)cc1O` [PCM-0215127], the “BTK inhibition (%)” value was -7.8%.
Still for that read-out and setting: with `CN1C(=O)[C@@]23C[C@]4([C@]56C[C@@]78SS[C@@](CO)(C(=O)N7[C@H]5Nc5ccccc56)N(C)C8=O)c5ccccc5N[C@@H]4N2C(=O)[C@]1(CO)SS3` [PCM-0215602] the figure was 5.4%; with `C[C@H]1CC[C@@H]2N(C1)C[C@H]1[C@@H]3C[C@H]4[C@@H](CC(=O)[C@H]5C[C@@H](O)CC[C@@]54C)[C@@H]3CC[C@H]1[C@]2(C)O` [PCM-0216485], -13.9%.
For `CC1=C2C(=O)[C@H]3[C@@H](CC=C4C[C@@H](O)CC[C@@]43C)[C@@H]2CC[C@]12O[C@@H]1C[C@H](C)CN[C@H]1[C@H]2C` [PCM-0214856], the “BTK inhibition (%)” value is -12.5%.
`COC(=O)C1=CCCN(C)C1` [PCM-0003961]: the “BTK inhibition (%)” value is -10.1%.
For `CC(C)C1=CC(=O)[C@@](C)([C@H]2[C@H](O)C[C@@]3(C)[C@@H]4CC=C5[C@@H](CC[C@@H](O[C@@H]6OC[C@@H](O)[C@H](O)[C@H]6O[C@@H]6O[C@@H](C)[C@H](O)[C@@H](O)[C@H]6O)C5(C)C)[C@]4(C)C(=O)C[C@]23C)O1` [PCM-0216419], the “BTK inhibition (%)” value is 2.3%.
For `COP(=O)(OC)SCn1c(=O)oc2cc(Cl)cnc21` [PCM-0215999], the “BTK inhibition (%)” value is given as -2.3%.
The same measure, in the same setting: with `N#C[C@H](O[C@@H]1O[C@H](CO[C@@H]2O[C@H](CO)[C@@H](O)[C@H](O)[C@H]2O)[C@@H](O)[C@H](O)[C@H]1O)c1ccccc1` [PCM-0094813] the figure was -12.5%; with `CCCCCc1cc(O)cc(O)c1` [PCM-0215917], -13.9%.
Same read-out and setting: then `C[C@H]1CCCC(=O)CCC/C=C/c2cc(O)cc(O)c2C(=O)O1` [PCM-0216639], with 10.8%; and `C/C=C\c1cc(OC)c(OC)cc1OC` [PCM-0216406], with -3.9%; and `CN1CCc2cc3c(cc2[C@H]1[C@@H]1OC(=O)c2c1ccc1c2OCO1)OCO3` [PCM-0095582], with -0.8%.
